From patent EP4351590B1, “A GLUCOSE-METHOTREXATE CONJUGATE FOR USE IN PREVENTING OR TREATING AUTOIMMUNE DISEASES” (Uniwersytet Medyczny Im. Piastów Slaskich We Wroclawiu, priority 2021, dated 2022)
Where two headings read alike, the source gives them in different places.

What was measured:
[1] = cited from earlier work
[2] = tested on: unstimulated HaCaT cells; assay: MTT assay, cell viability, non-inflammatory cell model; format: cell-based; details: 10 µM, incubation 48 hours, unstimulated HaCaT (non-inflammatory human keratinocytes), mean of 3 replicates
Procedure: SW982 and HaCaT cells were seeded in a 96-well plate at 10 x 10^3 cells per well. The next day, cells were incubated with TNF-a at a dose of 10 ng/ml to induce inflammation. After 24h, cells were treated with MTX or Glu-MTX at 10 µM dose and incubated for 48h. After 48 hours of incubation, the medium was decanted, and 100 µl of a solution of yellow soluble 3-(4,5-dimethyl-2-thiazolyl)-2,5-diphenyl-2H-tetrazolium bromide (MTT) at a concentration of 0.5-1 mg/ml was added. After 4 hours of incubation, the MTT solution was decanted, and 50 µl/well of DMSO was added. After 3 hours, the optical density of the dissolved formazan was analyzed colorimetrically in a BioTek plate reader.
Since living cells reduce MTT to formazan, the optical density (OD) is highest in control (C) wells which accounted for 100% of cell viability. Viability in wells incubated with compound (COMP) was calculated using the formula: X = 100% x OD COMP/OD C [formula]
Figures 1 and 2 show the results of a viability assessment study (IC50) for TNF-α-stimulated SW982 and HaCaT cell lines treated with methotrexate alone or a glucose-methotrexate (Glu-MTX) derivative. […] The test was also performed on an unstimulated HaCaT cell line, which is the counterpart of non-inflammatory human keratinocytes. […] The study used: 10 µM Glu-MTX, 10 µM Methotrexate; incubation 48 hours; MTT analysis. […]

[3] = cited from earlier work; remark: listed apart in the source

Compound	solubility in water [1]	cytotoxicity (cell viability) [2]	bioavailability ([3]; at higher doses)	bioavailability ([3]; at low doses)	plasma half-life ([3]; elimination from the circulation via the kidneys)
CN(Cc1nc2c(N)nc(N)nc2[nH]c1=O)c1ccc(C(=O)N[C@@H](CCC(=O)O)C(=O)O)cc1 [7-OH-MTX]	sparingly soluble in water				
CN(Cc1cnc2nc(N)nc(N)c2n1)c1ccc(C(=O)N[C@@H](CCC(=O)O)C(=O)O)cc1 [MTX, Methotrexate]		much greater cytotoxicity	10-20%	almost complete	5 to 8 h
